Measured values reported in patent US6541503B2, “Substituted oxindole derivatives as protein tyrosine kinase and as protein serine/threonine kinase inhibitors” (SmithKline Beecham Corporation, priority 1997, dated 2003).
Where two headings read alike, the source gives them in different places.

Experiments:
cSrc = cSrc (Homo sapiens, UniProt P12931); test: Src peptide phosphorylation assay (Elisa or isotope based); format: biochemical
Experimental: The peptide substrates used in Src and Lck assays were biotin-aminohexyl-EEIYGEF-NH2 (Src) and biotin-aminohexyl-[…]-NH2 (Lck). The src and Ick proteins were purified to homogeneity from a baculovirus expression system and preactivated before adding to assay mixtures. The maximum activation was achieved by incubating concentrated enzyme (10-30 mM) on ice for 40 min in the presence of 1 mM ATP and 10 mM MgCl2 in 100 mM HEPES, pH 7.5. The activated enzyme was diluted to 2 nM into a 50-mL reaction mixture containing 100 mM HEPES, pH 7.5. 5 mM ATP, 10 mM MgCl2, 2 mM peptide, 0.05 mg/mL BSA, and an inhibitor at varying concentrations and with or without 8 mCi/mL [γ-^33P]ATP dependent upon the method of analysis for the extent of reaction. The controls were reactions in the presence (negative controls) or absence (positive controls) of 50 mM EDTA. Reactions were allowed to proceed for 30 min at room temperature and quenched with addition of EDTA to 50 mM in 220 mL. The extent of reactions was analyzed in one of the two ways: an Elisa-based and a radioactive isotope-based. The quenched samples (200 mL) were transferred to a neutravidin coated plate (Perice) and incubated at room temperature for 40 min to allow biotinylated peptide to bind to neutravidin. The unbound peptide and the rest of the solution was washed away using a plate washer. In the Elisa format, a 200 mL HRP-PY20 anti phosphotyrosine antibody conjugate solution was added. After incubation for about 30 min, the plated was washed to remove unbound antibody-HRP conjugate. An Elisa substrate, K-blue (Neogen), was added and the Elisa reaction quenched with Red-stop (Neogen) after 15 min. The plate was read at A625 in a plate reader. In the isotope-based format, the reactions had been performed in the presence of [γ-^33P]ATP. 200 mL Scintiverce DB was added to each well of the plate with bound biotin-peptide. The plate was sealed and counted in a micro-b-counter (Wallac). IC50 values were obtained by fitting raw data to A625 (cpm)=Vmax*(1−([l]/(IC50+[l])))+b, where b is background.

[1] = tested on: RKO colon adenocarcinoma cells; test: MTT assay, RKO; format: cell-based, human
Experimental: Compounds are tested for their ability to inhibit cell proliferation and cell viability. The metabolic conversion of 3-(4,5-dimethylthiazol-2-yl)-2,5-diphenyltetrazolium bromide (MTT, Sigma #M2128) to a reduced form is a commonly used measure of cellular viability. Following is the procedure:
Cells are maintained in 75 cm^2 tissue culture flasks until ready for use. The cells are grown and plated for the assay in Dulbecco's modified Eagle's media (DMEM) containing 10% fetal bovine serum. For example, the following cell lines can be used: a) human foreskin fibroblasts (HFF); b) HT29 (human colon carcinoma cell line); c)MDA-MB-468 (human breast carcinoma cell line); d) RKO (human colon adenocarcinoma cell line); e) SW620 (human colon carcinoma cell line); f) A549 (human lung carcinoma cell line); and g) MIA PACA (human pancreatic carcinoma cell line). Cells are maintained at 37° C. in 10% CO2, 90% humidified air. Cells are plated in 96-well tissue culture plates at the densities listed below. 100 μL of cell suspension is added to each well of the 96-well plate except the top row of the plate which contains no cells and serves as a reference for the spectrophotometer.
Cells are incubated overnight in DMEM containing 10% fetal bovine serum at 37° C. in 10% CO2, 90% humidified air prior to dosing. […] Compounds with solubilities of less than 30 μM are dosed at the highest soluble concentration. Stock solutions of compounds are made in 100% dimethyl sulfoxide (DMSO). Stock solutions are diluted in DMEM containing 100 μg/ml gentamicin and 0.3 to 0.6% DMSO at the twice the highest concentration to be placed on the cells. If compounds have been dissolved in DMSO the final concentration of DMSO on the cells is kept below 0.3%. Three-fold serial dilutions are performed on each compound to prepare 10 concentrations of the compound for dosing. 100 μl of diluted compound is added to the 100 μl of media currently on the dish. For each concentration of compound, 2-4 replicate wells are prepared.
Cells are returned to incubator and allowed to proliferate in the presence of compound for 72 h before addition of MTT. MTT is prepared in phosphate buffered saline (Irvine Scientific #9240) at a concentration of 2 mg/ml. 50 μl per well of MTT solution is added to the 200 μl of media to yield a final concentration of 0.4 mg/ml and plates are returned to the incubator for 4 h. After 4 h incubation the media, compound and MTT mixture is aspirated from the plates and 100 μl of 100% DMSO is added to each well in addition to 25 μl of Sorenson's Buffer (0.1M glycine, 0.1M NaCl, pH 10.5). Quantitation of metabolic reduction of MTT in each plate is performed by reading optical density at 570 nm wavelength on a Molecular Devices UVmax microplate reader. Growth inhibition curves and 50% inhibitory concentrations are determined using Microsoft Excel.
HDF are normal diploid fibroblast cells. RKO are colon adenocarcinoma cells and MES/SA are […].

UL97 = biological target: T1, UL97 (Human cytomegalovirus, UniProt P16788); test: UL97 protein kinase assay, 32P transfer from ATP to histone H2B; format: biochemical
T1 construct: GST; made in house; host or cells: baculovirus vector in Sf9 cells
T1 sequence (P16788 whole entry): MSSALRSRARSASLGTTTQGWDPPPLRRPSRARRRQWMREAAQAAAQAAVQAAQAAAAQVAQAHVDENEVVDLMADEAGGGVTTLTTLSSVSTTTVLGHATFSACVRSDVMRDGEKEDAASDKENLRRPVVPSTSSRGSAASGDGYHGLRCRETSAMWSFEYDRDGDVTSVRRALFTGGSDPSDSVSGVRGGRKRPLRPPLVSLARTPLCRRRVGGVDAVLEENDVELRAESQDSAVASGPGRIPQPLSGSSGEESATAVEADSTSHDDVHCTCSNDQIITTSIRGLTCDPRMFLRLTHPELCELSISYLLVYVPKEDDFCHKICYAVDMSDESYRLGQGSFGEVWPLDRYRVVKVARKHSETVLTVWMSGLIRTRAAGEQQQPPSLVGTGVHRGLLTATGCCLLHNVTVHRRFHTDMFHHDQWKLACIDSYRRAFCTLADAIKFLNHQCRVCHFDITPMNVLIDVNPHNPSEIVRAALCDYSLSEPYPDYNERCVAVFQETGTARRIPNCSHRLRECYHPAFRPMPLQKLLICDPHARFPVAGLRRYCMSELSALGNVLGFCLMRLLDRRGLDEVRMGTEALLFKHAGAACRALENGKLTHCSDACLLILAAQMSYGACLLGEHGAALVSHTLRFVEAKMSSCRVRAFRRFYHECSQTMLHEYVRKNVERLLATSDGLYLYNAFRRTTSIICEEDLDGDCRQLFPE
Experimental: UL97 was produced as a GST fusion protein from a baculovirus vector expressed in sf9 cells as described by He (He, et al., Journal of Virology 1997, 71, 405-11). UL97 was assayed as a protein kinase using ^32P transfer from ATP to histone H2B with detection of radiolabeled histone bound to phosphocellulose. Assay mixes for testing inhibitors of UL97 activity contained 2 mM [γ^32P]-ATP, 15 mM histone H2B, 50 mM sodiumCHES, pH 9.5, 1 M NaCl, 2 mM dithiothreitol and 10 mM MgCl2. Inhibitors were dissolved in diluted DMSO to give a final DMSO concentration in the reaction of 1% DMSO. After incubation at 20° C., the reactions were terminated by addition of 10 volumes of 75 mM phosphoric acid, 30 mM ATP, 1 mM EDTA, then were spotted onto phosphocellulose filters and washed four times with 75 mM phosphoric acid. Radioactivity was determined by liquid scintillation counting.

[2] = Homo sapiens, 72 h; read-out: MTT RKO IC50
[3] = Homo sapiens, 72 h, read-out: MTT RKO IC50

cSrc, sequence (P12931 whole entry, species assumed): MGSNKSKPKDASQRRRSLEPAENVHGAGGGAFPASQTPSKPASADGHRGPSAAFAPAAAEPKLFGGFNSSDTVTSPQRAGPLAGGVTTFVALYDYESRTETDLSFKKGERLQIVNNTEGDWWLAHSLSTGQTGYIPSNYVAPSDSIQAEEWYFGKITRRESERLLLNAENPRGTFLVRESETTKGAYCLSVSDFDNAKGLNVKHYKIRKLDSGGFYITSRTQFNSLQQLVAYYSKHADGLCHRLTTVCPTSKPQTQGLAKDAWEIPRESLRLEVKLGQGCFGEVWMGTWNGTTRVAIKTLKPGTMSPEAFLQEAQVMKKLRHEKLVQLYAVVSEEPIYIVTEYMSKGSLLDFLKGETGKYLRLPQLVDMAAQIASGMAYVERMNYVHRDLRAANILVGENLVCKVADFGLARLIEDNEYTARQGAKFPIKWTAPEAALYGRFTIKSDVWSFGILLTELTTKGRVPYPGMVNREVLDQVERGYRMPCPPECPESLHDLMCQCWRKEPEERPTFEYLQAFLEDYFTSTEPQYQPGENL

Structure (SMILES)	IC50 (cSrc) [nM]	IC50 [1, 2] [nM]	IC50 (UL97) [nM]	IC50 [1, 3] [nM]
CS(=O)(=O)Cc1ccc(NC=C2C(=O)Nc3ccc4ncsc4c32)cc1 [Example 76, 8-(4-Methylsulfonylmethyl-phenylamino-methylene)-6,8-dihydro-1-thia-3,6-diaza-as-indacen-7-one]	> 100	> 5000	–	–
CC(C)(CO)CNS(=O)(=O)c1ccc(NC=C2C(=O)Nc3ccc4ncsc4c32)cc1 [Example 77, N-(3-Hydroxy-2,2-dimethyl-propyl)-4-[(7-oxo-6,7-dihydro-1-thia-3,6-diaza-as-indacen-8-ylidenemethyl)-amino]-benzenesulfonamide]	–	1100 to 5000	1 to 10	–
CNS(=O)(=O)Cc1ccc(NN=C2C(=O)Nc3ccc4ncccc4c32)cc1 [Example 68, N-Methyl-C-{4-[N′-(2-oxo-2,3-dihydro-pyrrolo[3,2-f]quinolin-1-ylidene)-hydrazino]-phenyl}-methanesulfonamide]	–	–	11 to 50	> 5000
CNS(=O)(=O)Cc1ccc(NN=C2C(=O)Nc3cc(C)c(O)c(C)c32)cc1 [Example 99]	> 100	100 to 500	1 to 10	–
O=C1Nc2ccc3ncsc3c2C1=CNc1ccc(S(=O)(=O)Nc2ccccn2)cc1 [Example 72, 4-[(7-Oxo-6,7-dihydro-1-thia-3,6-diaza-as-indacen-8-ylidenemethyl)-amino]-N-pyridin-2-yl-benzenesulfonamide]	> 100	–	11 to 50	1100 to 5000
